Here are results for two compounds from PMC4809498, “Artonin E Induces Apoptosis via Mitochondrial Dysregulation in SKOV-3 Ovarian Cancer Cells” (PLoS ONE, 2016).

As a reminder, the IC50 is the point on the concentration scale where inhibition reaches its midpoint. Low readings indicate inhibition by little substance, high ones a need for much substance.

In one assay the test system is SKOV-3 cells. Description: MTT cell viability assay, SKOV-3. The format is cell-based, human. Particulars: SKOV-3, MTT; for IC50: Homo sapiens. How it is done:
(§1) Metastatic ovarian adenocarcinoma (SKOV-3) and normal Chinese hamster ovary (CHO) cell lines were originally obtained from the American Type Culture Collection (ATCC; Manassas, VA). SKOV-3 cells were cultured in McCoy’s 5A medium and CHO cells were cultured in F12K medium. A human periodontal ligament fibroblast cell line was purchased from Lonza, USA and maintained in stroma cell basal medium. T1074 (normal immortalized human ovarian surface epithelial cell line) was originally purchased from Applied Biological Materials (abm®) Canada and cultured in Prigrow 1 medium.
(§2) The inhibitory effects of artonin E and two positive controls paclitaxel and carboplatin were examined by MTT assay. Cells at a density of 5×10^3cells/well were placed in a 96-well plate and left for 24 h to attach. The attached cells were exposed to artonin E, paclitaxel, and carboplatin at different concentrations and incubated for 24, 48, and 72 h. Subsequently, 20 μL of 5 mg/mL MTT solution was added after drug treatment and the resulting mixture was incubated for 4 h to form purple formazan. Afterward, 100 μL of dimethyl sulfoxide (DMSO) was transferred into each well to dissolve the purple formazan, and results were measured using a microplate reader (Tecan Infinite M 200 PRO, Männedorf, Switzerland) at an absorbance of 570 nm. The half-maximal concentrations that caused cell growth inhibition (IC50 values) were obtained from the MTT viability growth curve.
A general note: Tetrazolium dyes change colour on reduction, which living cells bring about.

The next assay has as its system T1074 cells. The assay is described as follows: MTT cell viability assay, T1074. It counts as cell-based, human. Particulars: for IC50: Homo sapiens. As to the method:
as §1, §2

The structures appear in SMILES notation. Converted amounts (≈) assume the structure as drawn.

`N.N.O=C([O-])C1(C(=O)[O-])CCC1.[Pt+2]` [Carboplatin, carboplatin]: the IC50 values in the assay on SKOV-3 cells (24 h treatment) was found to be 15.1 ± 0.36 µg/mL; in the assay with SKOV-3 cells (48 h treatment) it was 10.5 ± 0.5 µg/mL; in the assay on SKOV-3 cells (72 h treatment), 7.2 ± 0.25 µg/mL; in the assay with T1074 cells (24 h treatment), 45.6 ± 0.57 µg/mL; in the assay on T1074 cells (48 h treatment), 25.8 ± 0.28 µg/mL; in the assay with T1074 cells (72 h treatment) it was 10.8 ± 0.7 µg/mL.

As to `CC(=O)O[C@H]1C(=O)[C@@]2(C)[C@H]([C@H](OC(=O)c3ccccc3)[C@]3(O)C[C@H](OC(=O)[C@H](O)[C@@H](NC(=O)c4ccccc4)c4ccccc4)C(C)=C1C3(C)C)[C@]1(OC(C)=O)CO[C@@H]1C[C@@H]2O` [Paclitaxel, paclitaxel], the concentration for half-maximal inhibition (IC50) with SKOV-3 cells (SK-OV-3, 24 h, 24 h treatment) is 4.6 ± 0.28 µg/mL (≈ 5.39 µM); in the assay on SKOV-3 cells (SK-OV-3, 48 h, 48 h treatment) it was 2.5 ± 0.2 µg/mL (≈ 2.93 µM); in the assay on SKOV-3 cells (SK-OV-3, 72 h, 72 h treatment), 0.8 ± 0.2 µg/mL (≈ 0.937 µM); in the assay with T1074 cells (24 h treatment), greater than 50 µg/mL; with T1074 cells (48 h treatment), 49.3 ± 0.76 µg/mL (≈ 57.7 µM); with T1074 cells (72 h treatment), 30.5 ± 0.5 µg/mL (≈ 35.7 µM).
